Patent US20190374627A1, “TARGET PEPTIDES FOR CANCER THERAPY AND DIAGNOSTICS” (priority 2016, published 2019)
Square brackets hold non-standard residues; d marks the D form. Ends that are not written are not given here. pS = N[C@@H](COP(=O)(O)O)C(=O)O

Experiments:
[1] = tested on: expanded lymphocyte cultures from deceased donor livers, cirrhotic livers and HCC; test: ICS for MHC-I-pP reactivity of liver-derived lymphocyte cultures after phosphopeptide-specific expansion; type: cell-based, human; conditions: for ppCTL response, Deceased Donor Liver Do 2 / ppCTL response, Deceased Donor Liver Do 3 / ppCTL response, Deceased Donor Liver Do 4 / ppCTL response, Deceased Donor Liver Do 6 / ppCTL response, End-stage Liver Cirrhosis IHL 11 / ppCTL response, End-stage Liver Cirrhosis IHL 12 / ppCTL response, End-stage Liver Cirrhosis IHL 13 / ppCTL response, End-stage Liver Cirrhosis IHL 15 / ppCTL response, HCC Distal HCC 1 / ppCTL response, HCC Tumor HCC 1 / ppCTL response, HCC Distal HCC 4 / ppCTL response, HCC Distal HCC 9 / ppCTL response, HCC Tumor HCC 9 / ppCTL response, HCC Distal HCC 12: pP-specifically expanded culture; for ppCTL response, HCC Distal HCC 1: HCC 1 Distal; for ppCTL response, HCC Tumor HCC 1: HCC 1 Tumor; for ppCTL response, HCC Distal HCC 4: HCC 4 Distal; for ppCTL response, HCC Distal HCC 9: HCC 9 Distal; for ppCTL response, HCC Tumor HCC 9: HCC 9 Tumor; for ppCTL response, HCC Distal HCC 12: HCC 12 Distal
[2] = tested on: unexpanded lymphocyte cultures (CD8^+ T cells); test: ICS for MHC-I-pP reactivity of lymphocyte cultures without expansion (Table 23, No Expansion)
[3] = tested on: CD8^+ T cells (PBMCs); test: Intracellular cytokine staining (ICS) of PBMCs after 7 days of stimulation with MHC-I-pP (healthy donors, HH patients); type: cell-based, human; conditions: for Reactive CD8^+ T cell population, HH2: HH patient HH2; for Reactive CD8^+ T cell population, HH3: HH patient HH3; for Reactive CD8^+ T cell population, HH6: HH patient HH6; for Reactive CD8^+ T cell population, HH8: HH patient HH8; for Reactive CD8^+ T cell population, HD1: Healthy donor HD1; for Reactive CD8^+ T cell population, HD4: Healthy donor HD4; for Reactive CD8^+ T cell population, HD5: Healthy donor HD5
Protocol: From this, CD8^+ T cell responses against newly identified MHC class I-associated phosphopeptides in healthy individuals and patients with chronic liver disease were investigated. Twenty-one of the newly identified HCC-associated HLA-A*0201-restricted phosphopeptides were selected (see Table 17) for further immunological testing in HLA-A*0201 positive patients. MHC-I-pP-specific cytotoxic CD8^+ T cell responses (ppCTL) were assessed using intracellular cytokine staining (ICS) and several cytokines and surface markers were assessed in parallel. After 7 days of stimulation with the respective MHC-I-pP and no other cytokines, CD3- and CD8-expressing T cells were stained for at least two different cytokines (IFN-γ, TNF-α) and when required CD107a expression as a marker for their cytotoxic potential.
First, peripheral blood mononuclear cells (PBMCs) from healthy donors and patients with hereditary hemochromatosis (HH) were analyzed. HH is a chronic liver disease characterized by excessive intestinal absorption of dietary iron resulting in a pathological deposition of iron in the liver. PBMCs or lymphocytes from liver tissue were extracted and specifically stimulated with (phospho-) peptides for 7 days before intracellular cytokine staining (ICS). Doublets and dead cells, using a fixable viability dye, were excluded. Lymphocytes were gated on CD3^+ and CD8^+ double positive cells and were analysed for expression of IFNγ, TNFα-, and CD107a.

[4] = tested on: expanded TIL / IHL cultures; test: ICS for MHC-I-pP reactivity of liver-derived lymphocyte cultures after unspecific rapid expansion protocol (REP); type: cell-based, human

KIAsEIAQL: CASKIN2 phosphopeptide, HLA-A*0201 (KIA[pS]EIAQL; listed as Homo sapiens)
0 (<0.25% reactive CD8-+ T cells): ppCTL response, Deceased Donor Liver Do 2 [1] | ppCTL response, Deceased Donor Liver Do 3 [1] | ppCTL response, End-stage Liver Cirrhosis IHL 11 [1] | ppCTL response, End-stage Liver Cirrhosis IHL 12 [1] | ppCTL response, End-stage Liver Cirrhosis IHL 13 [1] | ppCTL response, End-stage Liver Cirrhosis IHL 15 [1] | ppCTL response, HCC Distal HCC 1 [1] | ppCTL response, HCC Tumor HCC 1 [1] | ppCTL response, HCC Distal HCC 4 [1] | ppCTL response, HCC Distal HCC 9 [1] | ppCTL response, HCC Tumor HCC 9 [1] | ppCTL response, HCC Distal HCC 12 [1]
1 (0.25-2.5% reactive CD8-+ T cells): ppCTL response, Deceased Donor Liver Do 4 [1] | ppCTL response, Deceased Donor Liver Do 6 [1]
1 (0.25-2.5% reactive CD8^-+ T cells): Reactive CD8^+ T cells, No Expansion, HH6 [2] | Reactive CD8^+ T cell population, HH6 [3] | Reactive CD8^+ T cells, Non-specific Expansion, Do2 [4] | Reactive CD8^+ T cells, Non-specific Expansion, HH6 [4]
0 (<0.25% reactive CD8^-+ T cells): Reactive CD8^+ T cells, pP-specific Expansion, Do2 [1] | Reactive CD8^+ T cells, pP-specific Expansion, Do4 [1] | Reactive CD8^+ T cells, pP-specific Expansion, HH6 [1] | Reactive CD8^+ T cell population, HH2 [3] | Reactive CD8^+ T cell population, HH3 [3] | Reactive CD8^+ T cell population, HH8 [3] | Reactive CD8^+ T cell population, HD1 [3] | Reactive CD8^+ T cell population, HD4 [3] | Reactive CD8^+ T cell population, HD5 [3] | Reactive CD8^+ T cells, Non-specific Expansion, Do4 [4]

NLVPMVATV (Cytomegalovirus) [reference compound]
2 (2.5-5.0% reactive CD8-+ T cells): ppCTL response, Deceased Donor Liver Do 4 [1]
0 (<0.25% reactive CD8^-+ T cells): Reactive CD8^+ T cell population, HH3 [3] | Reactive CD8^+ T cell population, HH11 ([3]; HH patient HH11) | Reactive CD8^+ T cell population, HD1 [3] | Reactive CD8^+ T cell population, HD2 ([3]; Healthy donor HD2) | Reactive CD8^+ T cell population, HD3 ([3]; Healthy donor HD3) | Reactive CD8^+ T cell population, HD4 [3] | Reactive CD8^+ T cell population, HD5 [3] | Reactive CD8^+ T cells, Non-specific Expansion, Do2 [4]
4 (7.5-10% reactive CD8^-+ T cells): Reactive CD8^+ T cell population, HH2 [3]
0 (<0.25% reactive CD8-+ T cells): ppCTL response, Deceased Donor Liver Do 3 [1] | ppCTL response, Deceased Donor Liver Do 6 [1] | ppCTL response, End-stage Liver Cirrhosis IHL 11 [1] | ppCTL response, End-stage Liver Cirrhosis IHL 12 [1] | ppCTL response, End-stage Liver Cirrhosis IHL 13 [1] | ppCTL response, End-stage Liver Cirrhosis IHL 15 [1] | ppCTL response, HCC Tumor HCC 1 [1] | ppCTL response, HCC Distal HCC 4 [1] | ppCTL response, HCC Distal HCC 9 [1] | ppCTL response, HCC Tumor HCC 9 [1] | ppCTL response, HCC Distal HCC 12 [1]
3 (5-7.5% reactive CD8-+ T cells): ppCTL response, Deceased Donor Liver Do 2 [1]
1 (0.25-2.5% reactive CD8^-+ T cells): Reactive CD8^+ T cells, No Expansion, HH6 [2] | Reactive CD8^+ T cell population, HH6 [3] | Reactive CD8^+ T cell population, HH8 [3] | Reactive CD8^+ T cells, Non-specific Expansion, HH6 [4]
1 (0.25-2.5% reactive CD8-+ T cells): ppCTL response, HCC Distal HCC 1 [1]
5 (10-20% reactive CD8^-+ T cells): Reactive CD8^+ T cells, Non-specific Expansion, Do4 [4]
2 (2.5-5.0% reactive CD8^-+ T cells): Reactive CD8^+ T cells, pP-specific Expansion, Do4 [1] | Reactive CD8^+ T cells, No Expansion, Do4 ([2]; Do4)
3 (5-7.5% reactive CD8^-+ T cells): Reactive CD8^+ T cells, pP-specific Expansion, Do2 [1] | Reactive CD8^+ T cells, pP-specific Expansion, HH6 [1] | Reactive CD8^+ T cell population, HH10 ([3]; HH patient HH10)
